Reference: patent US6211244A, “Calcium receptor-active compounds” (priority 1995, dated 2001)
Like-named read-outs stand apart in the source and are kept apart here.

Molecular target: T1, human calcium receptor (Homo sapiens, UniProt P41180, R990G)
T1 construct: expressed in transfected cells; host or cells: HEK 293
T1 sequence (P41180 20-1078 R990G): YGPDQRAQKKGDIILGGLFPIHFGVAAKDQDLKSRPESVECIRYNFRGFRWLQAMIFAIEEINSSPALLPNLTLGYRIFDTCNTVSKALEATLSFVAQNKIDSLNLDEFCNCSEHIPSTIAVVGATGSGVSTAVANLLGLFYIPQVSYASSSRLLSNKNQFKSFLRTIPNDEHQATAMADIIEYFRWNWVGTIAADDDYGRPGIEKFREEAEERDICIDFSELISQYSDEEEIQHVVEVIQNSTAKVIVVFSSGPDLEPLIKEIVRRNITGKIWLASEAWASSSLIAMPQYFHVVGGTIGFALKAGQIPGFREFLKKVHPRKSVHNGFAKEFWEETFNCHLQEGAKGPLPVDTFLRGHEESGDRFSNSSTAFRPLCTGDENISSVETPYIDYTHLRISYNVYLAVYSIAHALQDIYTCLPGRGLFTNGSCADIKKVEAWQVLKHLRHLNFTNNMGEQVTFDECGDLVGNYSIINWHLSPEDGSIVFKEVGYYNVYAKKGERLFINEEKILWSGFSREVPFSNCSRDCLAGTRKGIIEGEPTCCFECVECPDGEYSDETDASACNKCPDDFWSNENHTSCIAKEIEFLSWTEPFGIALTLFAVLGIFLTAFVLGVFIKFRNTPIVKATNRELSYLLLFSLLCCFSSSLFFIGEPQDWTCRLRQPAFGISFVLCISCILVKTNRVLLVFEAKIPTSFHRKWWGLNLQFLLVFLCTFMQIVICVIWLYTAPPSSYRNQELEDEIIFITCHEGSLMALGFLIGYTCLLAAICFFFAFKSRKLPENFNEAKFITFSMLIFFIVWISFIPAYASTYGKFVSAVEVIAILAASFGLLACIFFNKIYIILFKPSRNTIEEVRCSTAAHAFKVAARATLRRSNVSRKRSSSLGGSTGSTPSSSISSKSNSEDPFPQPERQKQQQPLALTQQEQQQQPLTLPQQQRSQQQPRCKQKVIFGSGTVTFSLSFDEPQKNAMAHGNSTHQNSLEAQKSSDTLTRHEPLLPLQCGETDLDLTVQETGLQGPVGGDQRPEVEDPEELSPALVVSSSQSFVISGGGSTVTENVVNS
Experiment: increases in [Ca^2+ ]i in HEK-293 cells expressing the human calcium receptor (fura-2 loaded HEK 293/pHuPCaR4.0 cells), % activity
Type: cell-based
Conditions: for activity at […]: HEK293

Row | SMILES | % activity (33 ng/mL) | % activity (330 ng/mL) | % activity (3300 ng/mL) | further results
1 | CCOc1ccc(CN[C@H](C)c2cccc3ccccc23)cc1C [Compound 25A] | 114% | 120% | 122% | 
2 | COc1cccc([C@@H](C)NCCCc2cc(F)cc(F)c2)c1 [Compound 24M] | 99% | 134% | 132% | 
3 | CC(NCCC(c1ccccc1)c1ccccc1)c1cccc(Cl)c1 (stereo not shown) [Compound 2Y] | 10% | 59% |  | 
4 | CC(C)c1ccc([C@@H](C)N[C@H](C)c2cccc3ccccc23)cc1 [Compound 14L] |  |  |  | activity at […] (33 ng/mL): 78%; activity at […] (330 ng/mL): 109%
5 | COc1ccc(CNC(C)c2ccccc2Cl)cc1C (stereo not shown) [Compound 23M] | 74% | 97% | 113% | 
6 | CC(NC(C)c1ccc(C(C)(C)C)cc1)c1ccccc1 (stereo not shown) [Compound 13E] | 40% | 94% | 123% | 
7 | COc1cccc([C@@H](C)NCc2ccc3c(c2)OCCO3)c1 [Compound 25O] | 96% | 115% | 126% | 
8 | COc1ccc(CNC(C)c2cccc(C#N)c2)cc1C (stereo not shown) [Compound 24E] | 35% | 71% | 94% | 
9 | CC(NCc1ccc2ccccc2c1)c1ccccc1 (stereo not shown) [Compound 4J] | 8% | 47% |  | 
10 | C[C@H](CCc1cccc(OC(F)(F)F)c1)N[C@H](C)c1cccc2ccccc12 [Compound 22Y, (R,R)-N-[4-(3-trifluoromethoxyphenyl)-2-butyl]-1-(1-naphthyl)ethylamine] |  |  |  | activity at […] (33 ng/mL): 64%; activity at […] (330 ng/mL): 114%
11 | COc1cccc([C@@H](C)NCc2cccc(Oc3ccccc3)c2)c1 [Compound 12H] | 94% | 115% | 114% | 
12 | COc1ccc(CNC(C)c2ccc(F)cc2)cc1C (stereo not shown) [Compound 23L] | 37% | 77% | 107% | 
13 | C[C@@H](NCc1ccccc1)c1cccc2ccccc12 [Compound 12L] |  | 88% |  | % activity: 45
14 | COc1cccc([C@@H](C)N[C@H](C)CCc2cccc(OC(F)(F)F)c2)c1 [Compound 23A, (R,R)-N-[4-(3-trifluoromethoxyphenyl)-2-butyl]-1-(3-methoxyphenyl)ethylamine] | 67% | 103% |  | 
15 | CC(NC1CCc2ccccc2C1)c1ccccc1 (mixture of isomers) [Compound 4B] | 8% |  |  | % activity: 45
16 | C[C@H](CCc1cccc(OC(F)(F)F)c1)N[C@@H](C)c1cccc2ccccc12 [Compound 22X, (S,R)-N-[4-(3-trifluoromethoxyphenyl)-2-butyl]-1-(1-naphthyl)ethylamine] |  |  |  | activity at […] (33 ng/mL): 48%; activity at […] (330 ng/mL): 86%
17 | COc1cccc([C@@H](C)NCCCc2ccc(C(C)C)cc2)c1 [Compound 12Y] | 46% | 80% |  | 
18 | COc1cccc([C@@H](C)NC(C)CCc2ccccc2Cl)c1 (stereo partly shown) [Compound 21C = 4U] |  |  |  | % activity (330 ng/mL, listed as 4U): 72%
19 | COc1cccc([C@@H](C)NCCCc2ccccc2I)c1 [Compound 17R] | 65% | 98% |  | 
20 | COc1cccc([C@@H](C)NCCCc2ccccc2F)c1 [Compound 21R] | 66% | 100% |  | 
21 | C=CCOc1cccc([C@@H](C)NCc2ccc3ccccc3c2)c1 [Compound 10Z] | 51% | 96% |  | 
